Assay results reported in the supplement of paper PMC9663587.

Columns and labels:
[1] = compound: CC(=O)c1c(C)c2cnc(Nc3ccc(N4CCNCC4)cn3)nc2n(C2CCCC2)c1=O
Volasertib/BI6727 = compound: CC[C@@H]1C(=O)N(C)c2cnc(Nc3ccc(C(=O)N[C@H]4CC[C@H](N5CCN(CC6CC6)CC5)CC4)cc3OC)nc2N1C(C)C [Volasertib/BI6727]
THZ531 [2] = compound: T1, CN(C)C/C=C/C(=O)Nc1ccc(C(=O)N2CCC[C@@H](Nc3ncc(Cl)c(-c4c[nH]c5ccccc45)n3)C2)cc1 [THZ531]
Dasatinib = compound: Cc1nc(Nc2ncc(C(=O)Nc3c(C)cccc3Cl)s2)cc(N2CCN(CCO)CC2)n1 [Dasatinib]
[3] = compound: CO[C@@H](C)Cn1c(=O)n(C)c2cnc3ccc(-c4cncc(C(C)(C)O)c4)cc3c21
Doxorubicin = compound: COc1cccc2c1C(=O)c1c(O)c3c(c(O)c1C2=O)C[C@@](O)(C(=O)CO)C[C@@H]3O[C@H]1C[C@H](N)[C@H](O)[C@H](C)O1 [Doxorubicin]
BSJ-01-175 = compound: CN(C)C/C=C/C(=O)Nc1ccc(O[C@@H]2CCC[C@@H](Nc3ncc(Cl)c(-c4c[nH]c5ccccc45)n3)C2)cc1 [BSJ-01-175]
Rucaparib = compound: CNCc1ccc(-c2[nH]c3cc(F)cc4c3c2CCNC4=O)cc1 [Rucaparib]
INK128/MLN0128 = compound: CC(C)n1nc(-c2ccc3oc(N)nc3c2)c2c(N)ncnc21 [INK128/MLN0128]
[4] = compound: CC(=O)Nc1cccc(-n2c(=O)n(C3CC3)c(=O)c3c(Nc4ccc(I)cc4F)n(C)c(=O)c(C)c32)c1
AZD2014 = compound: CNC(=O)c1cccc(-c2ccc3c(N4CCOC[C@@H]4C)nc(N4CCOC[C@@H]4C)nc3n2)c1 [AZD2014]
Vorinostat = compound: O=C(CCCCCCC(=O)Nc1ccccc1)NO [Vorinostat]
Ceritinib/LDK378 = compound: Cc1cc(Nc2ncc(Cl)c(Nc3ccccc3S(=O)(=O)C(C)C)n2)c(OC(C)C)cc1C1CCNCC1 [Ceritinib/LDK378]
Taselisib/GDC0032 = compound: Cc1nc(-c2cn3c(n2)-c2ccc(-c4cnn(C(C)(C)C(N)=O)c4)cc2OCC3)n(C(C)C)n1 [Taselisib/GDC0032]
BSJ-03-123 [5] = compound: T2, CC(=O)c1c(C)c2cnc(Nc3ccc(N4CCN(CCOCCOCCOCCNC(=O)COc5cccc6c5C(=O)N(C5CCC(=O)NC5=O)C6=O)CC4)cn3)nc2n(C2CCCC2)c1=O [BSJ-03-123]
Neratinib/HKI272 [6] = compound: T3, CCOc1cc2ncc(C#N)c(Nc3ccc(OCc4ccccn4)c(Cl)c3)c2cc1NC(=O)/C=C/CN(C)C [Neratinib/HKI272]
THZ531 [7] = compound: T1, THZ531; assay: increase in dead-cell fraction, 72 h; higher = more death;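 further: breast cancer cell lines in 384-well plates, stained with Hoechst plus LIVE/DEAD far red dye and imaged, cells above an LDR intensity threshold counted dead, Hoechst-negative corpses included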
THZ1 = compound: CN(C)C/C=C/C(=O)Nc1ccc(C(=O)Nc2cccc(Nc3ncc(Cl)c(-c4c[nH]c5ccccc45)n3)c2)cc1 [THZ1]; assay: as above
YKL-5-124 = compound: C=CC(=O)Nc1ccc(C(=O)Nc2[nH]nc3c2CN(C(=O)N[C@H](CN(C)C)c2ccccc2)C3(C)C)cc1 [YKL-5-124]; assay: as above
[8] = compound: CCc1cnn2c(NCc3ccc[n+]([O-])c3)cc(N3CCCC[C@H]3CCO)nc12; assay: as above
BSJ-03-123 [9] = compound: T2, BSJ-03-123; assay: as above
Neratinib/HKI272 [10] = compound: T3, Neratinib/HKI272; assay: as above
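Wherever GR50, 72 h is given: breast cancer and non-malignant breast epithelial cell lines, Deep Dye Drop or Dye Drop imaging, nine half-log doses, GR normalized to time-zero plates and DMSO-only controls.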

Cell Line: HCC1806
- GR50, 72 h [1]: > 3.16 µM
- GR50, 72 h (Volasertib/BI6727): 0.0028 µM
- GR50, 72 h (THZ531 [2]): 0.407 µM
- GR50, 72 h (Dasatinib): 0.0537 µM
- GR50, 72 h [3]: 0.347 µM
- GR50, 72 h (Doxorubicin): 0.0159 µM
- GR50, 72 h (BSJ-01-175): 0.092 µM
- GR50, 72 h (Rucaparib): > 10 µM
- GR50, 72 h (INK128/MLN0128): 0.0524 µM
- GR50, 72 h [4]: > 1 µM
- GR50, 72 h (AZD2014): 1.82 µM
- GR50, 72 h (Vorinostat): 1.13 µM
- GR50, 72 h (Ceritinib/LDK378): 2.14 µM
- GR50, 72 h (Taselisib/GDC0032): 1.55 µM
- GR50, 72 h (BSJ-03-123 [5]): 2.56 µM
- GR50, 72 h (Neratinib/HKI272 [6]): 0.78 µM
- increase in dead-cell fraction (THZ531 [7]; 0.0001 µM): 0.0006
- increase in dead-cell fraction (THZ531 [7]; 0.0003162 µM): 0.001
- increase in dead-cell fraction (THZ531 [7]; 0.001 µM): 0.0004
- increase in dead-cell fraction (THZ531 [7]; 0.003162 µM): -0.0016
- increase in dead-cell fraction (THZ531 [7]; 0.01 µM): -0.0015
- increase in dead-cell fraction (THZ531 [7]; 0.03162 µM): 0.0016
- increase in dead-cell fraction (THZ531 [7]; 0.1 µM): 0.0014
- increase in dead-cell fraction (THZ531 [7]; 0.3162 µM): 0.0179
- increase in dead-cell fraction (THZ531 [7]; 1 µM): 0.586
- increase in dead-cell fraction (THZ1; 0.0001 µM): -0.0025
- increase in dead-cell fraction (THZ1; 0.0003162 µM): -0.0038
- increase in dead-cell fraction (THZ1; 0.001 µM): -0.0025
- increase in dead-cell fraction (THZ1; 0.003162 µM): -0.0009
- increase in dead-cell fraction (THZ1; 0.01 µM): -0.0024
- increase in dead-cell fraction (THZ1; 0.03162 µM): 0.0112
- increase in dead-cell fraction (THZ1; 0.1 µM): 0.0478
- increase in dead-cell fraction (THZ1; 0.3162 µM): 0.271
- increase in dead-cell fraction (THZ1; 1 µM): 0.766
- increase in dead-cell fraction (YKL-5-124; 0.001 µM): 0.0531
- increase in dead-cell fraction (YKL-5-124; 0.003162 µM): 0.0858
- increase in dead-cell fraction (YKL-5-124; 0.01 µM): 0.134
- increase in dead-cell fraction (YKL-5-124; 0.03162 µM): 0.202
- increase in dead-cell fraction (YKL-5-124; 0.1 µM): 0.196
- increase in dead-cell fraction (YKL-5-124; 0.3162 µM): 0.264
- increase in dead-cell fraction (YKL-5-124; 1 µM): 0.331
- increase in dead-cell fraction (YKL-5-124; 3.162 µM): 0.322
- increase in dead-cell fraction (YKL-5-124; 10 µM): 0.538
- increase in dead-cell fraction ([8]; 0.0001 µM): -0.0016
- increase in dead-cell fraction ([8]; 0.0003162 µM): -0.0077
- increase in dead-cell fraction ([8]; 0.001 µM): -0.0005
- increase in dead-cell fraction ([8]; 0.003162 µM): 0.0006
- increase in dead-cell fraction ([8]; 0.01 µM): 0.0355
- increase in dead-cell fraction ([8]; 0.03162 µM): 0.585
- increase in dead-cell fraction ([8]; 0.1 µM): 0.742
- increase in dead-cell fraction ([8]; 0.3162 µM): 0.728
- increase in dead-cell fraction ([8]; 1 µM): 0.713
- increase in dead-cell fraction (BSJ-03-123 [9]; 0.001 µM): 0.0017
- increase in dead-cell fraction (BSJ-03-123 [9]; 0.003162 µM): 0.0008
- increase in dead-cell fraction (BSJ-03-123 [9]; 0.01 µM): -0.0016
- increase in dead-cell fraction (BSJ-03-123 [9]; 0.03162 µM): -0.0015
- increase in dead-cell fraction (BSJ-03-123 [9]; 0.1 µM): 0.0039
- increase in dead-cell fraction (BSJ-03-123 [9]; 0.3162 µM): 0.0061
- increase in dead-cell fraction (BSJ-03-123 [9]; 1 µM): 0.0075
- increase in dead-cell fraction (BSJ-03-123 [9]; 3.162 µM): 0.0235
- increase in dead-cell fraction (BSJ-03-123 [9]; 10 µM): 0.152
- increase in dead-cell fraction (Neratinib/HKI272 [10]; 0.0003162 µM): 0.0048
- increase in dead-cell fraction (Neratinib/HKI272 [10]; 0.001 µM): -0.0002
- increase in dead-cell fraction (Neratinib/HKI272 [10]; 0.003162 µM): 0.0056
- increase in dead-cell fraction (Neratinib/HKI272 [10]; 0.01 µM): 0.015
- increase in dead-cell fraction (Neratinib/HKI272 [10]; 0.03162 µM): 0.0267
- increase in dead-cell fraction (Neratinib/HKI272 [10]; 0.1 µM): 0.0441
- increase in dead-cell fraction (Neratinib/HKI272 [10]; 0.3162 µM): 0.065
- increase in dead-cell fraction (Neratinib/HKI272 [10]; 1 µM): 0.0775
- increase in dead-cell fraction (Neratinib/HKI272 [10]; 3.162 µM): 0.435
